Data published in US20110098261A1, “TRITERPENOID-BASED COMPOUNDS USEFUL AS VIRUS INHIBITORS” (priority 2008, published 2011).
Where two headings read alike, the source gives them in different places.

Columns and labels:
[1] = test system: chicken embryo fibroblast (CEF) cells
[2] = test system: avian influenza virus KBNP-0028 (KCTC 10866BP); assay type: cell-based, A/chicken/Korea/SNU0028/2000(H9N2)

For `C=C(C)[C@@H]1CC[C@]2(C=O)CC[C@]3(C)[C@H](CC[C@@H]4[C@@]5(C)CC[C@H](O)C(C)(C)[C@@H]5CC[C@]43C)[C@@H]12` [12B-AJ-26A, betulinic aldehyde], the “Cytotoxicity assay (absorbance)” value ([1]; 6.25 μg/mL) was 0.352, the “Cytotoxicity assay (absorbance)” value ([1]; 12.5 μg/mL) was 0.326 and the “Cytotoxicity assay (absorbance)” value ([1]; 25 μg/mL) was 0.324. The “Cytotoxicity assay (absorbance)” value ([1]; 50 μg/mL) was 0.325, the “Cytotoxicity assay (absorbance)” value ([1]; 100 μg/mL) was 0.434 and the “Cytotoxicity assay (absorbance)” value ([1]; 200 μg/mL) was 0.421. The “Antiviral activity (in words)” value [2] was “showed antiviral activity”.
